{"source": "patent US20230141603A1", "about": "“BENZODIAZEPINE DERIVATIVES AS GABA A GAMMA1 PAM” (Hoffmann-La Roche Inc., priority 2021, published 2023)", "note": "pKi: −log10 of the molar value.", "data": [{"target": "T1, h-GABAA α1β2γ1 (Homo sapiens, UniProt P14867+Q8N1C3)", "T1 construct": "expressed in transfected cells; host or cells: HEK293F cells (ThermoFisher R79007), membranes", "T1 sequence (P14867 28-456)": "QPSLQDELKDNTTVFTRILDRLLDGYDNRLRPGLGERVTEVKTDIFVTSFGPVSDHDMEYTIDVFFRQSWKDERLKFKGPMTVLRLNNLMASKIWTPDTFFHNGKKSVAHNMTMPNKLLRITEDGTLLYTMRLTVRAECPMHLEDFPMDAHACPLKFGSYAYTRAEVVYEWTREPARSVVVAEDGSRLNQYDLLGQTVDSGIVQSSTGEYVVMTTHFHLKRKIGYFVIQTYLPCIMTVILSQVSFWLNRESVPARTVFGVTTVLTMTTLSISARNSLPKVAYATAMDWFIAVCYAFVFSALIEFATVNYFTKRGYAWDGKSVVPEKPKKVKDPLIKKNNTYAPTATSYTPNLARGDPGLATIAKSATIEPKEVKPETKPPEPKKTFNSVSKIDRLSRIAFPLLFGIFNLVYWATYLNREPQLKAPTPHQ", "T1 sequence (P47870 25-512 partner limits assumed)": "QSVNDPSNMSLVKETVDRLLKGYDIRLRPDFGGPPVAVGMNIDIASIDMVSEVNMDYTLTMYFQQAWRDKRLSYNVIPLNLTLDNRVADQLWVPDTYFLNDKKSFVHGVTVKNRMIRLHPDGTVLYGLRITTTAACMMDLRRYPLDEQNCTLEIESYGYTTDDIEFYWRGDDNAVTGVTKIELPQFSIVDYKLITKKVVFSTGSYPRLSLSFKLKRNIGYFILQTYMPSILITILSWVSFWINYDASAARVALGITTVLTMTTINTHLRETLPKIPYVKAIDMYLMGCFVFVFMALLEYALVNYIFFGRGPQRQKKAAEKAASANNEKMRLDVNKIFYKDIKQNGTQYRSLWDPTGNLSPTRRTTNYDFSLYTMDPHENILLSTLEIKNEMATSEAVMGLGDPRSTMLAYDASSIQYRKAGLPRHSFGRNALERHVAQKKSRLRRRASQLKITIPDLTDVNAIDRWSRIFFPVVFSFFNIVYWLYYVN", "T1 sequence (Q8N1C3 36-465)": "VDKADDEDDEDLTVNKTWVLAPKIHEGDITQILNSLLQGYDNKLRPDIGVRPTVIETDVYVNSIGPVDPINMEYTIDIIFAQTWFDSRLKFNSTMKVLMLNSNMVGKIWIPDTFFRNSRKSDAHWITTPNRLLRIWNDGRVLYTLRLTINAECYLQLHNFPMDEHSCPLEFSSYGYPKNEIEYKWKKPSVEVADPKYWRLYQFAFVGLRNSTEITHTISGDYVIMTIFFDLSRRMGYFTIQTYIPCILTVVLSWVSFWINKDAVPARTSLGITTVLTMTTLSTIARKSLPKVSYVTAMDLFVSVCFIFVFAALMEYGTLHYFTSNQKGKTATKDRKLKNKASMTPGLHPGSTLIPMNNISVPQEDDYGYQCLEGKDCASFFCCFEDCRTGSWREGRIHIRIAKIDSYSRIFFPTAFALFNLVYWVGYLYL", "experiment": "Radioligand binding assay, [3H]RO7239181 competition, HEK293F membranes", "values": [{"smiles": "Cn1cc(-c2nnc3n2-c2ccc(Cl)c(Cl)c2C(c2ncccc2F)=NC3)cn1", "note": "[Example 58, 7,8-dichloro-6-(3-fluoro-2-pyridyl)-1-(1-methylpyrazol-4-yl)-4H-[1,2,4]triazolo[4,3-a][1,4]benzodiazepine]", "pKi": 6.88}, {"smiles": "O=c1[nH]nc2n1-c1ccc(Cl)c(Cl)c1C(c1ncccc1F)=NC2", "note": "[Example 59, 7,8-dichloro-6-(3-fluoro-2-pyridyl)-2,4-dihydro-[1,2,4]triazolo[4,3-a][1,4]benzodiazepin-1-one]", "pKi": 7.27}, {"smiles": "Fc1cccnc1C1=NCc2nncn2-c2ccc(Cl)c(Cl)c21", "note": "[Example 60, 7,8-dichloro-6-(3-fluoro-2-pyridyl)-4H-[1,2,4]triazolo[4,3-a][1,4]benzodiazepine]", "pKi": 6.79}, {"smiles": "COc1ccc2c(c1Cl)C(c1c(F)cccc1F)=NCc1nnc(-c3ccncn3)n1-2", "note": "[Example 61, 7-chloro-6-(2,6-difluorophenyl)-8-methoxy-1-pyrimidin-4-yl-4H-[1,2,4]triazolo[4,3-a][1,4]benzodiazepine]", "pKi": 6.92}, {"smiles": "COc1ccc2c(c1Cl)C(c1c(F)cccc1F)=NCc1nnc(-c3cccnc3)n1-2", "note": "[Example 62, 7-chloro-6-(2,6-difluorophenyl)-8-methoxy-1-(3-pyridyl)-4H-[1,2,4]triazolo[4,3-a][1,4]benzodiazepine]", "pKi": 6.79}, {"smiles": "Fc1cccnc1C1=NCc2nnc(C3CC3)n2-c2ccc(Cl)c(Cl)c21", "note": "[Example 65, 7,8-dichloro-1-cyclopropyl-6-(3-fluoro-2-pyridyl)-4H-[1,2,4]triazolo[4,3-a][1,4]benzodiazepine]", "pKi": 6.96}, {"smiles": "Fc1cccnc1C1=NCc2nnc(-c3ccncn3)n2-c2ccc(C(F)(F)F)c(Cl)c21", "note": "[Example 69, 7-chloro-6-(3-fluoro-2-pyridyl)-1-pyrimidin-4-yl-8-(trifluoromethyl)-4H-[1,2,4]triazolo[4,3-a][1,4]benzodiazepine]", "pKi": 6.86}, {"smiles": "Cn1cc(-c2nnc3n2-c2ccc(C(F)(F)F)c(Cl)c2C(c2ncccc2F)=NC3)cn1", "note": "[Example 70, 7-chloro-6-(3-fluoro-2-pyridyl)-1-(1-methylpyrazol-4-yl)-8-(trifluoromethyl)-4H-[1,2,4]triazolo[4,3-a][1,4]benzodiazepine]", "pKi": 6.56}, {"smiles": "Cc1nnc2n1-c1ccc(Cl)c(Cl)c1C(c1ncccc1F)=NC2", "note": "[Example 71, 7,8-dichloro-6-(3-fluoro-2-pyridyl)-1-methyl-4H-[1,2,4]triazolo[4,3-a][1,4]benzodiazepine]", "pKi": 6.75}, {"smiles": "Fc1cccnc1C1=NCc2nnc(-c3cccnn3)n2-c2ccc(C(F)(F)F)c(Cl)c21", "note": "[Example 72, 7-chloro-6-(3-fluoro-2-pyridyl)-1-pyridazin-3-yl-8-(trifluoromethyl)-4H-[1,2,4]triazolo[4,3-a][1,4]benzodiazepine]", "pKi": 6.56}, {"smiles": "Fc1cccnc1C1=NCc2nnc(C3CC3)n2-c2ccc(Br)c(Cl)c21", "note": "[Example 77, 8-bromo-7-chloro-1-cyclopropyl-6-(3-fluoro-2-pyridyl)-4H-[1,2,4]triazolo[4,3-a][1,4]benzodiazepine]", "pKi": 7.38}, {"smiles": "Cc1nnc2n1-c1ccc(C(F)(F)F)c(Cl)c1C(c1ncccc1F)=NC2", "note": "[Example 78, 7-chloro-6-(3-fluoro-2-pyridyl)-1-methyl-8-(trifluoromethyl)-4H-[1,2,4]triazolo[4,3-a][1,4]benzodiazepine]", "pKi": 7.17}, {"smiles": "COc1ccc2c(c1Cl)C(c1c(F)cccc1F)=NCc1nnc(C3CC3)n1-2", "note": "[Example 79, 7-chloro-1-cyclopropyl-6-(2,6-difluorophenyl)-8-methoxy-4H-[1,2,4]triazolo[4,3-a][1,4]benzodiazepine]", "pKi": 7.10}, {"smiles": "CO[C@H]1C[C@H](c2nnc3n2-c2ccc(Cl)c(Cl)c2C(c2c(F)cccc2F)=NC3)C1", "note": "[Example 91, trans-7,8-dichloro-6-(2,6-difluorophenyl)-1-(3-methoxycyclobutyl)-4H-[1,2,4]triazolo[4,3-a][1,4]benzodiazepine]", "pKi": 7.29}, {"smiles": "Fc1cccc(F)c1C1=NCc2nnc(-c3cccnn3)n2-c2ccc(Br)c(Cl)c21", "note": "[Example 104, 8-bromo-7-chloro-6-(2,6-difluorophenyl)-1-pyridazin-3-yl-4H-[1,2,4]triazolo[4,3-a][1,4]benzodiazepine]", "pKi": 8.38}, {"smiles": "Cc1ncc2n1-c1ccc(Cl)cc1C(c1ccccc1F)=NC2", "note": "[Midazolam, reference compound]", "pKi": 5.94}]}]}
